Patent US20260115213A1 (priority 2021, published 2026)

What was measured:
[1] = molecular target: T1, eIF4A1(19-406)-(AG)5-AMPPNP complex (purified recombinant human eIF4A) (Homo sapiens, UniProt P60842); experiment: Thermal shift assay, melting temperature of eIF4A1(19-406)-(AG)5-AMPPNP-rocaglate complexes; format: binding; settings: 5 μM eIF4A, 50 μM (AG)5 RNA, 1 mM AMP-PNP, 100 μM compound; DMSO negative control Tm=48.80
T1 construct: eIF4A1(19-406)=amino acid residues 19-406 of eIF4A1; made in house
T1 sequence (P60842 19-406, one chain of several): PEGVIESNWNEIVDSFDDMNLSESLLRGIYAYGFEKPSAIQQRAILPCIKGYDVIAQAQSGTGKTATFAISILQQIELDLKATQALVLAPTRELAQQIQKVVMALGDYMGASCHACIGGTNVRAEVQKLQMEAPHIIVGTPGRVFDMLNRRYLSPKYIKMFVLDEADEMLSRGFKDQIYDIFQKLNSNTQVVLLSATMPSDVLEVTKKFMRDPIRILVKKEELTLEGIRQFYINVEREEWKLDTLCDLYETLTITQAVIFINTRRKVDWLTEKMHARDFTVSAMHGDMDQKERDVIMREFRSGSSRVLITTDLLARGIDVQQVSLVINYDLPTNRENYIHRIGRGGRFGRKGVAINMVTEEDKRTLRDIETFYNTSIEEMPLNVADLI
Protocol: A thermal shift assay was performed to study the complexing of the synthetic rocaglates with the eIF4A complex. For the thermal shift assay a final protein concentration of 5 μM purified recombinant human eIF4A (purification according to Iwasaki, et al., 2019) was used. In a reaction volume of 20 μL a 10-fold excess of polypurine RNA ((AG)5) (biomers) (final concentration: 50 μM), 1 mM of the ATP analogue AMP-PNP (ROCHE™), 100 μM of the synthetic rocaglate compounds or DMSO as well as 0.3 μL SYPRO® Orange Protein Gel Stain (SIGMA-ALDRICH™) were mixed with the protein. The measurement was performed in a MICROAMP® Fast 96-Well Reaction Plate (0.1 mL, APPLIED BIOSYSTEMS™) using the QUANTSTUDIO3™ Real-Time PCR System (APPLIED BIOSYSTEMS™). The melt curve starting temperature was set to 10° C. in increments of 0.05° C./s ending at 95° C. After measurement, the data was analyzed using the PROTEIN THERMAL SHIFT™ Software (APPLIED BIOSYSTEMS™).

5′-UTR of beta-globin = settings: HepG2 cells, 5, 10, 50 and 100 nM, 48 h, normalized to Renilla and DMSO control
[2] = test system: RNA viruses representing different virus families (EBOV, CoV, ZIKV, CHIKV, HEV); settings: non-cytotoxic concentrations; cited from earlier work
5′-UTR of (AG)15 = settings: HepG2 cells, 5, 10, 50 and 100 nM, 48 h, normalized to Renilla and DMSO control

SMILES: CONC(=O)[C@H]1[C@@H](O)[C@@]2(O)c3c(OC)cc(OC)cc3O[C@@]2(c2ccc(O)cc2)[C@@H]1c1ccccc1 [Compound 1, (1R,2R,3S,3aR,8bS)-1,8b-dihydroxy-3a-(4-hydroxyphenyl)-N,6,8-trimethoxy-3-phenyl-2,3-dihydro-1Hcyclopenta[b]benzofuran-2-carboxamide]
- melting temperature (Tm) of eIF4A1(19-406)-(AG)5-AMPPNP-Rocaglate complex [1]: 51.49
- reporter activity, β-globin 5′-UTR (eIF4A-independent effect) (5′-UTR of beta-globin): nonspecific effects

SMILES: COC(=O)[C@H]1[C@@H](O)[C@@]2(O)c3c(OC)cc(O[C@@H]4O[C@@H]([C@H](O)CO)CO[C@H]4OC)cc3O[C@@]2(c2ccc(OC)cc2)[C@@H]1c1ccccc1 [Silvestrol, methyl (1R,2R,3S,3aR,8bS)-6-[[(2S,3R,6R)-6-[(1R)-1,2-dihydroxyethyl]-3-methoxy-1,4-dioxan-2-yl]oxy]-1,8b-dihydroxy-8-methoxy-3a-(4-methoxyphenyl)-3-phenyl-2,3-dihydro-1H-cyclopenta[b][1]benzofuran-2-carboxylate]
- concentration range of broad-spectrum antiviral activity [2]: low nanomolar range

SMILES: COc1cc(OC)c2c(c1)O[C@@]1(c3ccc(O)cc3)[C@H](c3ccccc3)[C@@H](C(N)=O)[C@@H](O)[C@@]21O [Compound 9, (1R,2R,3S,3aR,8bS)-1,8b-dihydroxy-3a-(4-hydroxyphenyl)-6,8-dimethoxy-3-phenyl-2,3-dihydro-1H-cyclopenta[b]benzofuran-2-carboxamide]
- melting temperature (Tm) of eIF4A1(19-406)-(AG)5-AMPPNP-Rocaglate complex [1]: 55.44
- reporter activity, (AG)15 5′-UTR (eIF4A-dependency) (5′-UTR of (AG)15): only reduced reporter activity with polyAG sequences

SMILES: CONC(=O)[C@@H]1[C@H](O)[C@]2(O)c3c(OC)cc(O)cc3O[C@]2(c2ccc(OC)cc2)[C@H]1c1ccccc1 [Compound 7, (1S,2S,3R,3aS,8bR)-1,6,8b-trihydroxy-N,8-dimethoxy-3a-(4-methoxyphenyl)-3-phenyl-2,3,3a,8b-tetrahydro-1H-cyclopenta[b]benzofuran-2-carboxamide]
- melting temperature (Tm) of eIF4A1(19-406)-(AG)5-AMPPNP-Rocaglate complex [1]: 49.07

SMILES: COc1cc(OC)c2c(c1)O[C@]1(c3ccc(O)cc3)[C@@H](c3ccccc3)[C@H](C(N)=O)[C@H](O)[C@]21O [Compound 8, (1S,2S,3R,3aS,8bR)-1,8b-dihydroxy-3a-(4-hydroxyphenyl)-6,8-dimethoxy-3-phenyl-2,3-dihydro-1H-cyclopenta[b]benzofuran-2-carboxamide]
- melting temperature (Tm) of eIF4A1(19-406)-(AG)5-AMPPNP-Rocaglate complex [1]: 51.07

SMILES: CONC(=O)[C@H]1[C@@H](O)[C@@]2(O)c3c(OC)cc(O)cc3O[C@@]2(c2ccc(OC)cc2)[C@@H]1c1ccccc1 [Compound 6, (1R,2R,3S,3aR,8bS)-1,6,8b-trihydroxy-N,8-dimethoxy-3a-(4-methoxyphenyl)-3-phenyl-2,3-dihydro-1Hcyclopenta[b]benzofuran-2-carboxamide]
- melting temperature (Tm) of eIF4A1(19-406)-(AG)5-AMPPNP-Rocaglate complex [1]: 51.29
